From patent US11083725B2 (priority 2014, dated 2021)

System: NHBE cells
Assay: Biolog metabolic array: substrate use by NHBE cells with or without CA09 infection
Type: cell-based, human
Conditions: for Substrate use, 590 nm absorbance normalized to zero hour, 1 hr: Biolog PMM2, 1 hr; for Substrate use, 590 nm absorbance normalized to zero hour, 5 hr: Biolog PMM2, 5 hr; for Substrate use, 590 nm absorbance normalized to zero hour, 7 hr: Biolog PMM2, 7 hr
[1] = Control (uninfected) NHBE cells
[2] = Virus (CA09-infected NHBE cells, MOI 1)
[3] = Virus: CA09-infected NHBE cells, MOI 1, Biolog PMM2
[4] = Virus (CA09-infected, MOI 1) NHBE cells

Row | Compound | 590 nm absorbance normalized to zero hour (substrate use), 1 hr [1] | 590 nm absorbance normalized to zero hour (substrate use), 2 hr [1] | 590 nm absorbance normalized to zero hour (substrate use), 3 hr [1] | 590 nm absorbance normalized to zero hour (substrate use), 4 hr [1] | 590 nm absorbance normalized to zero hour (substrate use), 6 hr [1] | 590 nm absorbance normalized to zero hour (substrate use), 8 hr [1] | 590 nm absorbance normalized to zero hour (substrate use), 9 hr [1] | 590 nm absorbance normalized to zero hour (substrate use), 10 hr [1] | 590 nm absorbance normalized to zero hour (substrate use), 11 hr [1] | Substrate use, 590 nm absorbance normalized to zero hour, 1 hr [1] | Substrate use, 590 nm absorbance normalized to zero hour, 5 hr [1] | Substrate use, 590 nm absorbance normalized to zero hour, 7 hr [1] | 590 nm absorbance normalized to zero hour (substrate use), 1 hr [3] | 590 nm absorbance normalized to zero hour (substrate use), 2 hr [3] | 590 nm absorbance normalized to zero hour (substrate use), 3 hr [3] | 590 nm absorbance normalized to zero hour (substrate use), 4 hr [3] | 590 nm absorbance normalized to zero hour (substrate use), 5 hr [3] | 590 nm absorbance normalized to zero hour (substrate use), 6 hr [3] | 590 nm absorbance normalized to zero hour (substrate use), 7 hr [3] | 590 nm absorbance normalized to zero hour (substrate use), 8 hr [3] | further results
1 | CCCCCC(=O)O [Hexanoic Acid] | 1.35 | 1.47 | 2.74 | 2.80 | 1.04 | 4.11 | 4.10 | 4.13 | 3.16 | 1.35 | 1.18 | 4.15 | 0.25 | 0.28 | 0.31 | 0.33 | 0.36 | 0.37 | 0.37 | 0.38 | 590 nm absorbance normalized to zero hour (substrate use), 1 hr [2]: 0.25; 590 nm absorbance normalized to zero hour (substrate use), 2 hr [2]: 0.28; 590 nm absorbance normalized to zero hour (substrate use), 3 hr [2]: 0.31; 590 nm absorbance normalized to zero hour (substrate use), 4 hr [2]: 0.33; 590 nm absorbance normalized to zero hour (substrate use), 5 hr [2]: 0.36; 590 nm absorbance normalized to zero hour (substrate use), 6 hr [2]: 0.37; 590 nm absorbance normalized to zero hour (substrate use), 7 hr [2]: 0.37; 590 nm absorbance normalized to zero hour (substrate use), 8 hr [2]: 0.38; 590 nm absorbance normalized to zero hour (substrate use), 9 hr [2]: 0.36; 590 nm absorbance normalized to zero hour (substrate use), 10 hr [2]: 0.40; 590 nm absorbance normalized to zero hour (substrate use), 11 hr [2]: 0.41; 590 nm absorbance normalized to zero hour (substrate use), 9 hr [3]: 0.36; 590 nm absorbance normalized to zero hour (substrate use), 10 hr [3]: 0.40; 590 nm absorbance normalized to zero hour (substrate use), 11 hr [3]: 0.41
2 | CC(=O)C(C)O (stereo not shown) [3-Hydroxy 2-Butanone] | 1.49 | 1.75 | 1.64 | 1.71 | 0.48 | 1.86 | 7.44 | 7.39 | 2.14 | 1.49 | 2.01 | 1.80 | 1.24 | 1.65 | 2.42 | 2.37 | 2.39 | 2.28 | 2.37 | 2.01 | 590 nm absorbance normalized to zero hour (substrate use), 1 hr [2]: 1.24; 590 nm absorbance normalized to zero hour (substrate use), 2 hr [2]: 1.65; 590 nm absorbance normalized to zero hour (substrate use), 3 hr [2]: 2.42; 590 nm absorbance normalized to zero hour (substrate use), 4 hr [2]: 2.37; 590 nm absorbance normalized to zero hour (substrate use), 5 hr [2]: 2.39; 590 nm absorbance normalized to zero hour (substrate use), 6 hr [2]: 2.28; 590 nm absorbance normalized to zero hour (substrate use), 7 hr [2]: 2.37; 590 nm absorbance normalized to zero hour (substrate use), 8 hr [2]: 2.01; 590 nm absorbance normalized to zero hour (substrate use), 9 hr [2]: 2.18; 590 nm absorbance normalized to zero hour (substrate use), 10 hr [2]: 2.16; 590 nm absorbance normalized to zero hour (substrate use), 11 hr [2]: 2.35; 590 nm absorbance normalized to zero hour (substrate use), 9 hr [3]: 2.18; 590 nm absorbance normalized to zero hour (substrate use), 10 hr [3]: 2.16; 590 nm absorbance normalized to zero hour (substrate use), 11 hr [3]: 2.35
3 | OC[C@@]12OC[C@@H](O1)[C@@H](O)[C@@H](O)[C@@H]2O [Sedoheptulosan] | 0.31 | 0.41 | 0.44 | 0.49 | 0.56 | 0.71 | 0.82 | 0.89 | 1.46 | 0.31 | 0.61 | 0.71 | 1.49 | 1.48 | 1.46 | 1.43 | 1.30 | 1.36 | 1.39 | 1.49 | 590 nm absorbance normalized to zero hour (substrate use), 0 hr [1]: 1.00; Substrate use, 590 nm absorbance normalized to zero hour, 0 hr (Control (uninfected) NHBE cells, Biolog PMM2, 0 hr): 1.00; 590 nm absorbance normalized to zero hour (substrate use), 0 hr [4]: 1.00; 590 nm absorbance normalized to zero hour (substrate use), 1 hr [4]: 1.49; 590 nm absorbance normalized to zero hour (substrate use), 2 hr [4]: 1.48; 590 nm absorbance normalized to zero hour (substrate use), 3 hr [4]: 1.46; 590 nm absorbance normalized to zero hour (substrate use), 4 hr [4]: 1.43; 590 nm absorbance normalized to zero hour (substrate use), 5 hr [4]: 1.30; 590 nm absorbance normalized to zero hour (substrate use), 6 hr [4]: 1.36; 590 nm absorbance normalized to zero hour (substrate use), 7 hr [4]: 1.39; 590 nm absorbance normalized to zero hour (substrate use), 8 hr [4]: 1.49; 590 nm absorbance normalized to zero hour (substrate use), 9 hr [4]: 1.58; 590 nm absorbance normalized to zero hour (substrate use), 10 hr [4]: 1.48; 590 nm absorbance normalized to zero hour (substrate use), 11 hr [4]: 1.65; 590 nm absorbance normalized to zero hour (substrate use), 0 hr [3]: 1.00; 590 nm absorbance normalized to zero hour (substrate use), 9 hr [3]: 1.58; 590 nm absorbance normalized to zero hour (substrate use), 10 hr [3]: 1.48; 590 nm absorbance normalized to zero hour (substrate use), 11 hr [3]: 1.65
